Patent US20260234129A1, “NOVEL IMIDAZOLE DERIVATIVE AND USE THEREOF” (PELEMED CO., LTD., priority 2023, published 2026)

Assays:
[1] = tested on: MV4-11 cells (FLT3-ITD-expressing AML cell line); experiment: Cell proliferation inhibition, Alamar Blue; assay type: cell-based, human; conditions: Homo sapiens, MV4-11, 72 hours of compound treatment, read-out: Cellular (GI50) MV4-11
Protocol: (§1) The cell proliferation inhibition experiment on acute myeloid leukemia (AML) cell lines was performed using FL3-ITD-expressing AML cell line MV4-11, BaF3-ITD-FLT3 F691L cell line, and BaF3-ITD-FLT3 D835Y cell line to test FLT3 inhibitory activity. All cell lines were human-derived cell lines, and the sources and culture conditions for each cell line are as follows.
(§2) Cell viability was assessed by a resazurin redox-based assay using the Alamar Blue Assay kit (Invitrogen, USA). Specifically, MV4-11, BaF3-ITD-FLT3-F691L, and BaF3-ITD-FLT3-D835Y cells were plated in 384-well plates at 8,000 cells in 45 μL of medium. As a negative control, dimethyl sulfoxide (DMSO) was added together with the compound. After three days (72 hours) of compound treatment, 5 μL of the Alamar Blue kit reagent was added to each well of the 384-well plates, followed by incubation at 37° C. for 2 hours in a humidified CO2 incubator. After incubation, fluorescence intensity (Flu) was measured at 544 nm and 590 nm using a SpectraMax iD3 Multi Mode Microplate Reader (Molecular Devices, ID3-STD).

[2] = molecular target: T1, FLT3(D835Y) (Homo sapiens, UniProt P36888, D835Y); experiment: ADP-Glo kinase assay FLT3 D835Y; assay type: biochemical; conditions: recombinant FLT3(D835Y), 120 minutes at room temperature, read-out: Enzyme (IC50) FLT3 D835Y
T1 construct: Recombinant proteins containing FLT3 and FLT3(D835Y) domains were purchased from Promega; purchased Promega V4514
Protocol: (§3) FLT3 activity inhibition was measured using the ADP-Glo kinase assay method (Promega, cat #V9101). The ADP-Glo kinase assay method is a luminescent ADP detection assay method that provides a homogeneous, high-throughput screening method for measuring kinase activity by quantifying the amount of ADP produced during the kinase reaction.
(§4) The assay was performed in two steps. First, after the kinase reaction, an equal volume of ADP-Glo™ reagent was added to terminate the kinase reaction and deplete any remaining ATP. Second, a kinase detection reagent was added to convert ADP to ATP, and simultaneously the newly synthesized ATP was measured via the luciferase/luciferin reaction. The light produced was measured using a luminometer.
Recombinant proteins containing FLT3 and FLT3(D835Y) domains were purchased from Promega (cat #V4064, cat #V4514), respectively. According to the manufacturer's instructions, the optimal enzyme, ATP, and substrate concentrations were optimized using the ADP-Glo™ kinase assay method (Promega, USA). […] Finally, the detection reagent (kinase detection reagent, 10 μl) was added, followed by reaction at room temperature for 30 minutes, and the phosphorylation of the substrate peptide was measured by detecting the luciferase signal (integration time 0.5~1 sec) using a SpectraMax ID5 reader (Molecular Devices LLC., San Jose, CA, USA).

[3] = molecular target: T2, FLT3 (Homo sapiens, UniProt P36888); experiment: ADP-Glo kinase assay FLT3 WT; assay type: biochemical; conditions: recombinant FLT3, 120 minutes at room temperature, read-out: Enzyme (IC50) FLT3 WT
T2 construct: Recombinant proteins containing FLT3 and FLT3(D835Y) domains were purchased from Promega; purchased Promega V4064
T2 sequence (P36888 610-943 limits assumed): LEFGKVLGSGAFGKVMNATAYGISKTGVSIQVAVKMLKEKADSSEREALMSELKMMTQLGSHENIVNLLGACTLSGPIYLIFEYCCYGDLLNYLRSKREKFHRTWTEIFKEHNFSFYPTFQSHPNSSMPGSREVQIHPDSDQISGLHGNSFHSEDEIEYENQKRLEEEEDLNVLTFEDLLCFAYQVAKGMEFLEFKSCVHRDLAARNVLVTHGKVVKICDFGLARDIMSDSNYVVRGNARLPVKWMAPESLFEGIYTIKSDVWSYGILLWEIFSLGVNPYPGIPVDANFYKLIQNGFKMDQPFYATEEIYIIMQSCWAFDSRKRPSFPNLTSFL
Protocol: as §3, §4
Recombinant proteins containing FLT3 and FLT3(D835Y) domains were purchased from Promega (cat #V4064, cat #V4514), respectively. According to the manufacturer's instructions, the optimal enzyme, ATP, and substrate concentrations were optimized using the ADP-Glo™ kinase assay method (Promega, USA). […] Thereafter, ADP-Glo™ reagent (5 μl) was added and reacted for an additional 40 minutes at room temperature. Finally, the detection reagent (kinase detection reagent, 10 μl) was added, followed by reaction at room temperature for 30 minutes, and the phosphorylation of the substrate peptide was measured by detecting the luciferase signal (integration time 0.5~1 sec) using a SpectraMax ID5 reader (Molecular Devices LLC., San Jose, CA, USA).

[4] = tested on: BaF3-ITD-FLT3 F691L cell line; experiment: Cell proliferation inhibition, Alamar Blue; assay type: cell-based; conditions: 72 hours of compound treatment, read-out: Cellular (GI50) BaF3-ITD-FLT3 F691L
Protocol: as §1, §2

[5] = tested on: BaF3-ITD-FLT3 D835Y cell line; experiment: Cell proliferation inhibition, Alamar Blue; assay type: cell-based; conditions: 72 hours of compound treatment, read-out: Cellular (GI50) BaF3-ITD-FLT3 D835Y
Protocol: as §1, §2

`NCCCNC(=O)c1ccc2[nH]nc(-c3nc4ccc(C(=O)N5CCOCC5)cc4[nH]3)c2c1` [Example 21, N-(3-aminopropyl)-3-(6-(morpholine-4-carbonyl)-1H-benzo[d]imidazol-2-yl)-1H-indazole-5-carboxamide] gave a GI50 [1] of 100 to 1000 nM, an IC50 [2] of under 10 nM and an IC50 [3] of under 10 nM.
Compound `N[C@H]1CC[C@H](NC(=O)c2ccc3[nH]nc(-c4nc5ccc(N6CCCCC6)cc5[nH]4)c3c2)C1` [Example 31, N-((1S,3S)-3-aminocyclopentyl)-3-(6-(piperidin-1-yl)-1H-benzo[d]imidazol-2-yl)-1H-indazole-5-carboxamide] has a GI50 [1] of under 10 nM, a GI50 [4] of 10 to 100 nM and a GI50 [5] of under 10 nM. It also gave an IC50 [3] of under 10 nM.
For `N[C@H]1CC[C@H](NC(=O)c2ccc3[nH]nc(-c4nc5ccc(-c6ccco6)cc5[nH]4)c3c2)C1` [Example 80, N-((1S,3S)-3-aminocyclopentyl)-3-(6-(furan-2-yl)-1H-benzo[d]imidazol-2-yl)-1H-indazole-5-carboxamide], the GI50 [1] was under 10 nM, the GI50 [4] was 10 to 100 nM and the GI50 [5] was under 10 nM.
